The molecules below were run against S1P1 (Homo sapiens, UniProt P21453) (assay: Beta arrestin assay (in vitro S1P1 activity)). Settings: in vitro beta-arrestin agonist assay.
Assay type: cell-based
Experimental: The in vitro S1P1 activity was determined in the beta arrestin assay.

Sequence of S1P1 (P21453 whole entry, species assumed): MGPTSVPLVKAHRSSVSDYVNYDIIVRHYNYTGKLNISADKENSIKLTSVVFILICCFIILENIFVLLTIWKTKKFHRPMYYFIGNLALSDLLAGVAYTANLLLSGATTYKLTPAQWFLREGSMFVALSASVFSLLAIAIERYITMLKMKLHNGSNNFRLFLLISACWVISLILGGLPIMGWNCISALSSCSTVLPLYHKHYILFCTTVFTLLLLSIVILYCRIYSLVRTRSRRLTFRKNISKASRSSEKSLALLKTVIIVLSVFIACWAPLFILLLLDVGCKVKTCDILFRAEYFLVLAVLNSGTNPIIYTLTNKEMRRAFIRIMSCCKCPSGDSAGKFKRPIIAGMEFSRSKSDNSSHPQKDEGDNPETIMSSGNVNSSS

Point of comparison: `O=C(O)CC1CCc2c1[nH]c1ccc(OCc3ccc(C4CCC(O)C4)c(C(F)(F)F)c3)cc21` (single isomer, unassigned) [Compound 2-1, 2-(7-((4-(3-Hydroxycyclopentyl)-3-(trifluoromethyl)benzyl)oxy)-1,2,3,4-tetrahydrocyclopenta[b]indol-3-yl)acetic Acid], EC50 0.0521 µM. Against it:
- O=C(O)CC1CCc2c1[nH]c1ccc(OCc3ccc(C4CCCC4O)c(C(F)(F)F)c3)cc21 (mixture of isomers) [Compound 4, 2-(7-((4-(2-hydroxycyclopentyl)-3-(trifluoromethyl)benzyl)oxy)-1,2,3,4-tetrahydrocyclopenta[b]indol-3-yl)acetic acid] — 14-fold lower, 0.00366 µM
- O=C(O)CC1CCc2c1[nH]c1ccc(OCc3ccc(C4CCC(O)C4)c(C(F)(F)F)c3)cc21 (single isomer, unassigned) [Compound 2-2, 2-(7-((4-(3-Hydroxycyclopentyl)-3-(trifluoromethyl)benzyl)oxy)-1,2,3,4-tetrahydrocyclopenta[b]indol-3-yl)acetic Acid] — 1.6-fold higher, 0.0856 µM
- O=C(C[C@H]1CCc2c1[nH]c1ccc(OCc3ccc(C4CCCC4)c(C(F)(F)F)c3)cc21)OC1O[C@H](C(=O)O)[C@@H](O)[C@H](O)[C@H]1O (stereo partly drawn) [Compound 1, (2S,3S,4S,5R)-6-(2-((R)-7-((4-cyclopentyl-3-(trifluoromethyl)benzyl)oxy)-1,2,3,4-tetrahydrocyclopenta[b]indol-3-yl)acetoxy)-3,4,5-trihydroxytetrahydro-2H-pyran-2-carboxylic acid] — 13-fold lower, 0.0039 µM
- O=C(O)CC1CCc2c1[nH]c1ccc(OCc3ccc(C4CCCC4O)c(C(F)(F)F)c3)cc21 (centres unmarked) [Compound 4-1, 2-(7-((4-(2-Hydroxycyclopentyl)-3-(trifluoromethyl)benzyl)oxy)-1,2,3,4-tetrahydrocyclopenta[b]indol-3-yl)acetic Acid] — 3.1-fold lower, 0.0167 µM

Reference: US11555015B2, “Compounds useful in the treatment of autoimmune and inflammatory disorders” (Arena Pharmaceuticals, Inc., priority 2018, dated 2023)
